According to the Deep4Chem optical property database:
Each block holds one compound with its values, some of them ahead of it.

Assay: photoluminescence quantum yield (fraction); solvent given as SMILES

photoluminescence quantum yield (in ClCCl): 0.64
Structure (SMILES): COc1ccc(C#Cc2c3cc4ccccc4cc3c(C#Cc3ccc(OC)cc3)c3cc4sc(C)cc4cc23)cc1

photoluminescence quantum yield (in CC#N): 0.23
Structure (SMILES): C(=C\c1nc2c3ccccc3c3ccccc3c2o1)/c1ccccc1

photoluminescence quantum yield (in ClCCl): 0.14
Structure (SMILES): Cc1cc(-c2ccc(C(C)(C)C)cc2)c2nsnc2c1-c1ccc(C(C)(C)C)cc1

photoluminescence quantum yield (in C1CCCCC1): 0.47
photoluminescence quantum yield (in CC#N): 0.5
photoluminescence quantum yield (in ClCCl): 0.57
Structure (SMILES): c1ccc2c(-c3ccc4sc5ccc(-c6c7ccccc7cc7ccccc67)cc5c4c3)c3ccccc3cc2c1

photoluminescence quantum yield (in C1CCOC1): 0.38
Structure (SMILES): c1ccc(-c2cnc3nn4ccccc4c3c2)cc1

photoluminescence quantum yield (in C1CCOC1): 0.7
photoluminescence quantum yield (in CO): 0.58
Structure (SMILES): CCOC(=O)C1=CNC=C(C(=O)OCC)C1c1ccccc1

photoluminescence quantum yield (in C1CCCCC1): 0.0001
photoluminescence quantum yield (in C1COCCO1): 0.0001
photoluminescence quantum yield (in CC#N): 0.001
photoluminescence quantum yield (in CCO): 0.007
photoluminescence quantum yield (in OCC(F)(F)F): 0.03
Structure (SMILES): Cc1cc2c(o1)c(C)cc1ccc(=O)oc12

photoluminescence quantum yield (in CN(C)C=O): 0.7
photoluminescence quantum yield (in ClC(Cl)Cl): 0.8
Structure (SMILES): CCCCCCCCCCCCOc1cc2c(cc1OCCCCCCCCCCCC)C1=C3C(=O)N4C=Cc5cc(OCCCCCCCCCCCC)c(OCCCCCCCCCCCC)cc5C4=C3C(=O)N1C=C2

photoluminescence quantum yield (in ClC(Cl)Cl): 0.05
Structure (SMILES): F[B-]1(F)n2c(cc3sc4ccccc4c32)C(c2ccc(I)cc2)=C2C=c3sc4ccccc4c3=[N+]21

photoluminescence quantum yield (in CCCCCC): 0.49
photoluminescence quantum yield (in CO): 0.6
photoluminescence quantum yield (in ClCCl): 0.43
Structure (SMILES): CCCCc1ccc2ccc3c(CCCC)cc(CCCC)c4ccc1c2c34

photoluminescence quantum yield (in C1CCOC1): 0.08
Structure (SMILES): c1cc2ccc1-c1ccc(cc1)-c1ccc([se]1)-c1ccc(cc1)-c1ccc(cc1)-c1ccc([se]1)-c1ccc(cc1)-c1ccc(cc1)-c1ccc-2[se]1

photoluminescence quantum yield (in C1CCOC1): 0.25
Structure (SMILES): CC(C)(C)NC1=CC2=c3cc(NC(C)(C)C)c4nc(C(F)(F)C(F)(F)C(F)(F)F)nc5c(NC(C)(C)C)cc(c3c54)C3=CC(NC(C)(C)C)=C4N=C(C(F)(F)C(F)(F)C(F)(F)F)N=C1C4C32 (configuration not stated)

photoluminescence quantum yield (in ClCCl): 0.032
Structure (SMILES): Cc1cccc2nc(-c3ccc(-c4cc(=O)cc(-c5ccccc5)o4)cc3)c(NC3CCCCC3)n12

photoluminescence quantum yield (in O): 0.32
Structure (SMILES): Cc1ccc(C)c(C2=C3C=CC(=[N+](C)C)C=C3[Si](C)(C)c3cc(N(C)C)ccc32)c1

photoluminescence quantum yield (in ClCCl): 0.75
Structure (SMILES): CC(C)[Si](C#Cc1c2ccccc2c(C#C[Si](C(C)C)(C(C)C)C(C)C)c2nc3c4ccccc4c(=O)c4ccccc4c3nc12)(C(C)C)C(C)C

photoluminescence quantum yield (in ClC(Cl)Cl): 0.08
Structure (SMILES): CC[Si](C#Cc1c2c(=O)c3ccccc3c2c(C#C[Si](CC)(CC)CC)c2c(=O)c3ccccc3c12)(CC)CC

photoluminescence quantum yield (in ClCCl): 0.36
Structure (SMILES): c1ccc(C2c3ccccc3-c3cc4c(cc32)-c2ccccc2C4c2ccccc2)cc1 (configuration not stated)

photoluminescence quantum yield (in C1CCOC1): 0.7
photoluminescence quantum yield (in C1COCCO1): 0.73
photoluminescence quantum yield (in CC#N): 0.64
photoluminescence quantum yield (in CC(C)O): 0.5
photoluminescence quantum yield (in CCO): 0.43
photoluminescence quantum yield (in CCOC(C)=O): 0.68
photoluminescence quantum yield (in CN(C)C=O): 0.76
photoluminescence quantum yield (in CO): 0.33
photoluminescence quantum yield (in CS(C)=O): 0.82
photoluminescence quantum yield (in O): 0.55
Structure (SMILES): Cc1ccc(C2CC(c3ccc(O)cc3)=NN2c2ccc(S(N)(=O)=O)cc2)cc1 (configuration not stated)

photoluminescence quantum yield (in C1COCCO1): 0.16
photoluminescence quantum yield (in CCO): 0.15
photoluminescence quantum yield (in CN(C)C=O): 0.16
photoluminescence quantum yield (in ClC(Cl)Cl): 0.17
Structure (SMILES): CCCCCCCN1C(=CC2=C([O-])C(=CC3=[N+](CCCCCCC)c4ccccc4C3(C)C)C2=C(C#N)C#N)Sc2ccccc21

photoluminescence quantum yield (in ClCCl): 0.78
Structure (SMILES): Cc1cc(-c2ccc(-c3ccccc3)cc2)cc(C)[o+]1

More lines, now with the values behind:

Structure (SMILES): CCN(CC)c1ccc2c(c1)oc(=O)c1c(C)nc3c(cnn3-c3ccccc3)c12
photoluminescence quantum yield (in C1CCCCC1): 0.931
photoluminescence quantum yield (in CCOC(C)=O): 0.685
photoluminescence quantum yield (in CN(C)C=O): 0.37
photoluminescence quantum yield (in CO): 0.294
photoluminescence quantum yield (in ClCCl): 0.829

Structure (SMILES): CCCCCCN(CCCCCC)c1ccc(C#Cc2ccc(-c3ccc(C#Cc4ccc(N(CCCCCC)CCCCCC)cc4)cc3)cc2)cc1
photoluminescence quantum yield (in Cc1ccccc1): 0.87

Structure (SMILES): Cc1ccc(/C=C/c2ccccc2-[n+]2noc([O-])c2C)cc1
photoluminescence quantum yield (in C1CCCCC1): 0.0019
photoluminescence quantum yield (in CC#N): 0.0019

Structure (SMILES): Fc1ccccc1-c1c2cc(Cl)ccc2nc2cc3ccccc3cc12
photoluminescence quantum yield (in ClCCl): 0.46

Structure (SMILES): N#Cc1ccc2c(c1)C1(c3cc(C#N)ccc3-2)c2ccccc2N(c2ccccc2)c2ccccc21
photoluminescence quantum yield (in Cc1ccccc1): 0.47

Structure (SMILES): COC(=O)/C(C#N)=c1\s/c(=c2/s/c(=C(/C#N)C(=O)OC)c3cc(-c4ccc(C(F)(F)F)cc4)sc23)c2sc(-c3ccc(C(F)(F)F)cc3)cc12
photoluminescence quantum yield (in Cc1ccccc1): 0.212

Structure (SMILES): N#Cc1ccc(/C=C/c2c3ccccc3cc3ccccc23)cc1
photoluminescence quantum yield (in CC1CCCCC1): 0.27
photoluminescence quantum yield (in CC#N): 0.003
photoluminescence quantum yield (in CO): 0.029
photoluminescence quantum yield (in Cc1ccccc1): 0.23
photoluminescence quantum yield (in ClC(Cl)Cl): 0.05

Structure (SMILES): CCCCCCc1ccc2c3c(ccc2c1)O[B-](c1ccccc1)(c1ccccc1)[N+](c1ccc([N+]2=Cc4c(ccc5cc(CCCCCC)ccc45)O[B-]2(c2ccccc2)c2ccccc2)cc1)=C3
photoluminescence quantum yield (in C1CCOC1): 0.32
photoluminescence quantum yield (in CC#N): 0.27
photoluminescence quantum yield (in Cc1ccccc1): 0.35
photoluminescence quantum yield (in ClCCl): 0.47

Structure (SMILES): [O-][n+]1c(-c2ccccc2)cc(N2CCOCC2)nc1/C=C/c1ccccc1
photoluminescence quantum yield (in ClCCl): 0.2

Structure (SMILES): COc1cc2c(cc1-c1ccccc1)Cc1c3c(c4c(c1-2)-c1cc(OC)c(-c2ccccc2)cc1C4)C(=O)N(CCC(C)C)C3=O
photoluminescence quantum yield (in C1CCOC1): 0.53
photoluminescence quantum yield (in CC#N): 0.46
photoluminescence quantum yield (in CC(C)=O): 0.38
photoluminescence quantum yield (in CCOC(C)=O): 0.61
photoluminescence quantum yield (in CS(C)=O): 0.47
photoluminescence quantum yield (in Cc1ccccc1): 0.48
photoluminescence quantum yield (in ClC(Cl)Cl): 0.64
photoluminescence quantum yield (in ClCCl): 0.63

Structure (SMILES): COc1ccc(N(c2ccc(OC)cc2)c2ccc3ccc4c(B(c5c(C)cc(C)cc5C)c5c(C)cc(C)cc5C)ccc5ccc2c3c54)cc1
photoluminescence quantum yield (in C1CCOC1): 0.19
photoluminescence quantum yield (in CC(C)=O): 0.026
photoluminescence quantum yield (in CCCCCC): 1
photoluminescence quantum yield (in Cc1ccccc1): 0.85
photoluminescence quantum yield (in ClC(Cl)Cl): 0.67
photoluminescence quantum yield (in ClCCl): 0.21

Structure (SMILES): O=P1(c2ccccc2)C(c2ccc(C(F)(F)F)cc2)=Cc2ccccc21 (configuration not stated)
photoluminescence quantum yield (in C1CCOC1): 0.65

Structure (SMILES): O=Cc1nc2ccc(C#Cc3ccc(N(c4ccccc4)c4ccccc4)cc3)cc2s1
photoluminescence quantum yield (in Cc1ccccc1): 0.57

Structure (SMILES): c1ccc(-c2nnc(-c3ccc(N4c5ccccc5N(c5ccccc5)c5ccccc54)cc3)n2-c2ccccc2)cc1
photoluminescence quantum yield (in Cc1ccccc1): 0.07
photoluminescence quantum yield (in c1cc(-n2c3ccccc3c3ccccc32)cc(-n2c3ccccc3c3ccccc32)c1): 0.42

Structure (SMILES): CCCCN(CCCC)c1ccc(/C=C/c2ccc3nc(/C=C/c4ccc(N(C)C)cc4)c(-c4ccccc4)nc3c2)cc1
photoluminescence quantum yield (in C1COCCO1): 0.44
photoluminescence quantum yield (in CC#N): 0.02
photoluminescence quantum yield (in ClCCl): 0.24

Structure (SMILES): CCNc1cc2oc(=O)c3c(=O)oc4ccccc4c3c2cc1C
photoluminescence quantum yield (in CS(C)=O): 0.27
photoluminescence quantum yield (in ClCCl): 0.84

Structure (SMILES): COc1ccc(C2=N/C(=C\c3ccc(C#N)cc3)C(=O)N2)cc1OC
photoluminescence quantum yield (in C1COCCO1): 0.189

Structure (SMILES): Cc1cc(N(C)C)ccc1C1=C2C=CC(=[N+](C)C)C=C2[Si](C)(C)c2cc(N(C)C)ccc21
photoluminescence quantum yield (in O): 0.001

Structure (SMILES): CC(C)(C)c1ccc(C2=Cc3cc4c(cc3P2(=O)c2ccccc2)C=C(c2ccc(C(C)(C)C)cc2)P4(=O)c2ccccc2)cc1 (configuration not stated)
photoluminescence quantum yield (in C1CCOC1): 0.44

Structure (SMILES): c1ccc2cc3cc4c(cc3cc2c1)-c1cccc2cccc-4c12
photoluminescence quantum yield (in CCCCCCC): 0.58

Structure (SMILES): CC1=CC(C)=[N+]2C1=C(c1ccc3cccnc3n1)c1c(C)cc(C)n1[B-]2(F)F
photoluminescence quantum yield (in CC#N): 0.04
photoluminescence quantum yield (in CCCCCC): 0.08
photoluminescence quantum yield (in CO): 0.16
photoluminescence quantum yield (in ClC(Cl)Cl): 0.07
photoluminescence quantum yield (in ClCCl): 0.06

Structure (SMILES): CCCCC(CC)Cn1c2cc(C#N)ccc2c2ccc(C#Cc3cc(C#Cc4ccc5c6ccc(C#N)cc6n(CC(CC)CCCC)c5c4)c4ccc5c(C#Cc6ccc7c8ccc(C#N)cc8n(CC(CC)CCCC)c7c6)cc(C#Cc6ccc7c8ccc(C#N)cc8n(CC(CC)CCCC)c7c6)c6ccc3c4c65)cc21 (configuration not stated)
photoluminescence quantum yield (in ClCCl): 0.61

Structure (SMILES): O=[N+]([O-])c1ccc(/C=C/c2nc3c4ccccc4c4ccccc4c3o2)cc1
photoluminescence quantum yield (in CC#N): 0.2

Structure (SMILES): CCn1c2ccccc2oc2c(C#N)c3c(oc4ccccc4n3CC)c(C#N)c21
photoluminescence quantum yield (in ClC(Cl)Cl): 0.44

Structure (SMILES): C(=C\c1ccc(-c2ccncc2)cc1)/c1ccc(-c2ccncc2)cc1
photoluminescence quantum yield (in ClCCl): 0.97

Structure (SMILES): Cc1ccc(-n2cccc2)cc1
photoluminescence quantum yield (in CC#N): 0.4
photoluminescence quantum yield (in CCCCCC): 0.28

Structure (SMILES): Cc1cc(C)c(C2=C3C=C(/C=C/C(=O)OC(C)(C)C)C=[N+]3[B-](F)(F)n3cc(/C=C/C(=O)OC(C)(C)C)cc32)c(C)c1
photoluminescence quantum yield (in ClCCl): 0.4

Structure (SMILES): COc1ccc2cc(-c3ccc([N+](=O)[O-])cc3)ccc2c1
photoluminescence quantum yield (in C1CCOC1): 0.006
photoluminescence quantum yield (in CC#N): 0.006
photoluminescence quantum yield (in ClC(Cl)Cl): 0.055
photoluminescence quantum yield (in ClCCl): 0.11

Structure (SMILES): CCCCOc1ccc(-c2cc3c(o2)c(-c2ccc(OCCCC)cc2)c2n3[B-](F)(F)[N+]3=Cc4c(-c5ccc(OCCCC)cc5)c5oc(-c6ccc(OCCCC)cc6)cc5n4[B-](F)(F)[N+]3=C2)cc1
photoluminescence quantum yield (in C1CCOC1): 0.44
photoluminescence quantum yield (in CN(C)C=O): 0.32
photoluminescence quantum yield (in CS(C)=O): 0.3
photoluminescence quantum yield (in Cc1ccccc1): 0.37
photoluminescence quantum yield (in ClC(Cl)Cl): 0.41
photoluminescence quantum yield (in ClCCl): 0.4

Structure (SMILES): O=C(O)c1cc2c(cc3ccc4cccc5ccc2c3c45)[nH]1
photoluminescence quantum yield (in CCOC(C)=O): 0.82

Structure (SMILES): CN(C)c1ccc(C#Cc2ccc3ccc4ccc(C#Cc5ccc(N(C)C)cc5)c5ccc2c3c45)cc1
photoluminescence quantum yield (in CCCCCC): 0.632
photoluminescence quantum yield (in CO): 0.256
photoluminescence quantum yield (in ClCCl): 0.534

Structure (SMILES): c1ccc(C2c3ccccc3-c3ccccc32)cc1
photoluminescence quantum yield (in CCO): 0.19

Structure (SMILES): COCc1ncc(-c2c3ccccc3c(-c3cnc(COC)nc3)c3ccccc23)cn1
photoluminescence quantum yield (in CCO): 0.89
photoluminescence quantum yield (in ClCCl): 0.83

Structure (SMILES): C=Cc1cc2ccc(OC)cc2oc1=O
photoluminescence quantum yield (in CC#N): 0.99

Structure (SMILES): CN(C)c1ccc(C2=CC3=C(c4ccc(C=O)cc4)[C@H]4c5ccccc5[C@]3(S2)c2ccccc24)cc1
photoluminescence quantum yield (in ClCCl): 0.46

Structure (SMILES): C[Si](C)(C)C#CC(C#C[Si](C)(C)C)=Cc1ccc(C=C(C#C[Si](C)(C)C)C#C[Si](C)(C)C)s1
photoluminescence quantum yield (in ClC(Cl)Cl): 0.01
